Data reported in the NIST ThermoML archive (doi:10.1021/je900938b).
Numbers after ± are expanded uncertainties.

What was measured:
[1] = 101.3 kPa, Liquid; for mass density: Pycnometric method
[2] = xn = mol fraction of the nth substance listed; conditions: 101 kPa, Liquid, x2 = 0; for mass density: Pycnometric method

OCCO [1,2-ethanediol]
[1]
Conditions | mass density [kg/m3] | viscosity [mPa·s]
298.15 K | – | 17.4 ± 0.39
303.15 K | 1107.1 ± 11 | 13.8 ± 0.31
308.15 K | 1103.5 ± 11 | 11.5 ± 0.26
313.15 K | 1100.3 ± 11 | 9.42 ± 0.21
318.15 K | – | 8.1 ± 0.18
323.15 K | 1093.5 ± 11 | 6.95 ± 0.15
328.15 K | – | 5.96 ± 0.13
333.15 K | 1085.6 ± 11 | 5.22 ± 0.11
338.15 K | 1082.1 ± 11 | 4.53 ± 0.1

OCCO [1,2-ethanediol] + OCC(O)CO
[2]
Conditions | mass density [kg/m3] | viscosity [mPa·s]
298.15 K | – | 17.4 ± 0.39
303.15 K | 1107.1 ± 11 | 13.8 ± 0.31
308.15 K | 1103.5 ± 11 | 11.5 ± 0.26
313.15 K | 1100.3 ± 11 | 9.42 ± 0.21
318.15 K | – | 8.1 ± 0.18
323.15 K | 1093.5 ± 11 | 6.95 ± 0.15
328.15 K | – | 5.96 ± 0.13
333.15 K | 1085.6 ± 11 | 5.22 ± 0.11
338.15 K | 1082.1 ± 11 | 4.53 ± 0.1

OCC(O)CO [glycerol]
[1]
Conditions | mass density [kg/m3] | viscosity [mPa·s]
298.15 K | 1257.8 ± 13 | 943.8 ± 76
303.15 K | 1254.7 ± 13 | 628.9 ± 44
308.15 K | 1252.2 ± 12 | 431.9 ± 26
313.15 K | 1249.4 ± 12 | 295.9 ± 15
318.15 K | 1245.8 ± 12 | 185.8 ± 7.7
323.15 K | 1242.3 ± 12 | 151.2 ± 5.4
328.15 K | 1239.3 ± 12 | 108.4 ± 3.3
333.15 K | 1236.1 ± 12 | 84.8 ± 2.2
338.15 K | 1232.8 ± 12 | 62.2 ± 1.6
